Key:
[1] = test system: alpha-1,2-mannosidase I; assay: Mannosidase activity assay in yeast microsomes, with or without DMJ; assay type: biochemical, C. Elegans; conditions: 120 μM DMJ, triplicate (FIG. 6)
Method: (§1) Mannosidase activity is measured by incubating for 4 hours at 37° C., with 4 mM of p-nitrophenyl-α-D-mannopyranoside with 100-200 μg of proteins (from total proteins or sub-cellular fractions) in 0.1 M of PBS, pH 6.5+/−120 μM DMJ (alpha-1,2-mannosidase I inhibitor) +/−12 μM SW (specific inhibitor of mannosidase II). Absorbance is measured at 405 nm.
The Adèle and Edgar yeasts, positive for the insertion of the expression cassette of mannosidase I in the gene URA3, are tested for their mannosidase I biochemical activity. […] The experiment was conducted in triplicate. We may observe in the wild S. cerevisiae and S. pombe strains, a mannosidase activity non-inhibited by DMJ.

[2] = molecular target: T1, mannosidase II (Mus musculus, UniProt P27046, V673G); assay: Mannosidase activity assay in Golgian yeast fractions, with or without swainsonine; assay type: biochemical; conditions: 12 μM SW (FIG. 9)
T1 construct: Amplification of a 3,453 by fragment; expressed in transfected cells; host or cells: S. cerevisiae and S. pombe with the TEF-promoter cassette integrated in LEU2 (strains Anaïs / Enrique); Golgi fractions
T1 sequence (P27046 1-1150 V673G): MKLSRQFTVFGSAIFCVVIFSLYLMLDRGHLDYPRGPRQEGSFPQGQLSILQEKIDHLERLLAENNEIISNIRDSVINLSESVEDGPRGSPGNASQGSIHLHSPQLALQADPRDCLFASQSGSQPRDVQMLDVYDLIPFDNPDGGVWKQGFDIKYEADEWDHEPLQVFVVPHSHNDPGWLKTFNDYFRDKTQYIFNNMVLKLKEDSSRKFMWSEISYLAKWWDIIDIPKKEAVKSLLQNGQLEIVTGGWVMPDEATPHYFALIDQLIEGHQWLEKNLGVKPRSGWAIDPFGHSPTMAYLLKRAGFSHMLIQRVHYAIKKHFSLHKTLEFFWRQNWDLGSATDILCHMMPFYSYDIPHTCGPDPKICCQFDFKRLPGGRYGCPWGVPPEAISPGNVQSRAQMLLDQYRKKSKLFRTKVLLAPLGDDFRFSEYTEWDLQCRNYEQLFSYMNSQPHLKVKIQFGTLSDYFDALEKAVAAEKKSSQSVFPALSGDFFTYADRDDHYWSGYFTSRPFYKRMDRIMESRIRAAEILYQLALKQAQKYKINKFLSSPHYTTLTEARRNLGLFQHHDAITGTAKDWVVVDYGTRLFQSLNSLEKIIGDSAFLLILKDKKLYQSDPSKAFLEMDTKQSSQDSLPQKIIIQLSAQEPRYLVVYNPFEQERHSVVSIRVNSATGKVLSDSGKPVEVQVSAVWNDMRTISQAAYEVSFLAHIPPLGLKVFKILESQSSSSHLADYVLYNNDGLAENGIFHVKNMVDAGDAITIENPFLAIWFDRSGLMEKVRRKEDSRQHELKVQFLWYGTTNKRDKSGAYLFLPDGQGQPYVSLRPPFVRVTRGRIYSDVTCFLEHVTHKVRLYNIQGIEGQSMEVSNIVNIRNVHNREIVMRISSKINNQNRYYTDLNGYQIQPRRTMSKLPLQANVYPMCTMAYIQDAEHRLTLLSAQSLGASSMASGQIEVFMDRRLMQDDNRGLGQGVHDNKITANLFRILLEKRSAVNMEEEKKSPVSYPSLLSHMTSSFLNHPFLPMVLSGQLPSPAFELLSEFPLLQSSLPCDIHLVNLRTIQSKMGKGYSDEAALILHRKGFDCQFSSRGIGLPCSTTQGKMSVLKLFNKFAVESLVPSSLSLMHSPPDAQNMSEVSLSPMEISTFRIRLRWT
Method: as §1
According to FIG. 9, we may observe in the parent S. cerevisiae and S. pombe strains a mannosidase activity insensitive to the inhibitory action of swainsonine. […] Further as, the measured mannosidase II activity is detected in Golgian yeast fractions, we may infer that this enzyme is properly expressed in the secretion route at the Golgian system.

inhibition of mannosidase activity by DMJ ([1]; selected S. cerevisiae and S. pombe strains with mannosidase I cassette)	inhibition of mannosidase activity by DMJ ([1]; wild S. cerevisiae and S. pombe strains)	SMILES	inhibition of mannosidase activity by swainsonine ([2]; parent S. cerevisiae and S. pombe strains)	inhibition of mannosidase activity by swainsonine ([2]; selected S. cerevisiae and S. pombe strains with mannosidase II cassette)
significant inhibition	non-inhibited	OC[C@H]1NC[C@@H](O)[C@@H](O)[C@@H]1O [DMJ, deoxymannojirimycin]		
		O[C@H]1[C@H]2[C@H](O)CCCN2C[C@H]1O [swainsonine]	insensitive	significant inhibition
